Data: patent US20100093723A1, “HETEROCYCLYL AND CYCLOALKYL SUBSTITUTED THIENO[2,3 d]PYRIMIDINE AND THEIR USE AS ADENOSINE A2a RECEPTOR ANTAGONISTS” (priority 2008, published 2010)

Assays:
[1] = molecular target: T1, human adenosine A2a receptor (Homo sapiens, UniProt P29274); experiment: Adenosine A2a Receptor Functional Assay (A2AGAL2); format: cell-based; details: CHO-K1 cells overexpressing human A2a receptor, cAMP inducible beta-galactosidase reporter, 15 nM NECA agonist challenge; read-out: A2AGAL2_v4 Ki
T1 construct: expressed in transfected cells; host or cells: CHO-K1
T1 sequence (P29274 whole entry): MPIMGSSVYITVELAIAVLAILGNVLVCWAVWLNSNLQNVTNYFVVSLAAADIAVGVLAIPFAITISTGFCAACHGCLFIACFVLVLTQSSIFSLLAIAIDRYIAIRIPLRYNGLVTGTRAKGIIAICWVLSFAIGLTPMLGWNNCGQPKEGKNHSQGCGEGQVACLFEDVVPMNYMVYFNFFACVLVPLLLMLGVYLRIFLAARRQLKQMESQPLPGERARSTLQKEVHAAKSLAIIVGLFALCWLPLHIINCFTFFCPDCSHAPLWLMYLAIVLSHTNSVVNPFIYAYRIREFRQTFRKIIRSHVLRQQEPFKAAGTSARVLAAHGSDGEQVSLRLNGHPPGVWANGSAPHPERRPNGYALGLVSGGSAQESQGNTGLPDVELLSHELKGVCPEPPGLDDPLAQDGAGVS
Method: Adenosine A2a Receptor Functional Assay (A2AGAL2)
(§1) To initiate the functional assay, cryopreserved CHO-K1 cells overexpressing the human adenosine A2a receptor and containing a cAMP inducible beta-galactosidase reporter gene were thawed, centrifuged, DMSO containing media removed, and then seeded with fresh culture media into clear 384-well tissue culture treated plates (BD #353961) at a concentration of 10K cells/well. Prior to assay, these plates were cultured for two days at 37° C., 5% CO2, 90% Rh. On the day of the functional assay, culture media was removed and replaced with 45 uL assay medium (Hams/F-12 Modified (Mediatech # 10-080CV) supplemented w/0.1% BSA). Test compounds were diluted and 11 point curves created at a 1000× concentration in 100% DMSO. Immediately after addition of assay media to the cell plates, 50 nL of the appropriate test compound antagonist or agonist control curves were added to cell plates using a Cartesian Hummingbird. Compound curves were allowed to incubate at room temperature on cell plates for approximately 15 minutes before addition of a 15 nM NECA (Sigma E2387) agonist challenge (5 uL volume). A control curve of NECA, a DMSO/Media control, and a single dose of Forskolin (Sigma F3917) were also included on each plate. After additions, cell plates were allowed to incubate at 37° C., 5% CO2, 90% Rh for 5.5-6 hours. After incubation, media was removed, and cell plates were washed 1×50 uL with DPBS w/o Ca & Mg (Mediatech 21-031-CV). Into dry wells, 20 uL of 1× Reporter Lysis Buffer (Promega E3971 (diluted in dH2O from 5× stock)) was added to each well and plates frozen at −20° C. overnight. For β-galactosidase enzyme colorimetric assay, plates were thawed out at room temperature and 20 μL 2× assay buffer (Promega) was added to each well. Color was allowed to develop at 37° C., 5% CO2, 90% Rh for 1-1.5 h or until reasonable signal appeared. The colorimetric reaction was stopped with the addition of 60 μL/well 1M sodium carbonate. Plates were counted at 405 nm on a SpectraMax Microplate Reader (Molecular Devices). Data was analyzed in Microsoft Excel and IC/EC50 curves were fit using a standardized macro.

[2] = molecular target: T2, human adenosine A1 receptor (Homo sapiens, UniProt P30542); experiment: Adenosine A1 Receptor Functional Assay (A1GAL2); format: cell-based; details: CHO-K1 cells overexpressing human A1 receptor, cAMP inducible beta-galactosidase reporter, 4 nM r-PIA/1 uM Forskolin agonist challenge; read-out: A1GAL2_v3 Ki
T2 construct: expressed in transfected cells; host or cells: CHO-K1
T2 sequence (P30542 1-326): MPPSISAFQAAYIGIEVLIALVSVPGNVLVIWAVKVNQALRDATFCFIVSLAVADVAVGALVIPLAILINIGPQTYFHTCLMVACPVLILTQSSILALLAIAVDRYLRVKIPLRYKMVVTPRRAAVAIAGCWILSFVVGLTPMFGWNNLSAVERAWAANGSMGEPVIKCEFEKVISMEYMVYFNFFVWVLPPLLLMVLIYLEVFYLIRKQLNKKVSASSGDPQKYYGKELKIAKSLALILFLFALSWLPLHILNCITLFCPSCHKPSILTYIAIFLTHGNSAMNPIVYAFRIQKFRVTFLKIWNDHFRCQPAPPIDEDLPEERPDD
Method: Adenosine A1 Receptor Functional Assay (A1GAL2)
as §1, with “adenosine A1” for “adenosine A2a”, “a 4” for “a 15”, “nM r-PIA” for “nM NECA”, “(Sigma P4532)/1 uM Forskolin (Sigma F3917)” for “(Sigma E2387)”, “of r-PIA in 1 uM Forskolin,” for “of NECA,”, “Forskolin” for “Forskolin (Sigma F3917)”

[3] = molecular target: T3, human A2a adenosine receptor (Homo sapiens, UniProt P29274); experiment: Ligand Binding Assay for Adenosine A2a Receptor (A2A-B); details: plasma membrane of HEK293 cells, radioligand [3H]CGS21680; read-out: A2A-B_v3 Ki
T3 construct: purchased PerkinElmer RB-HA2a; host or cells: HEK293 cell plasma membranes
T3 sequence (P29274 whole entry): as the sequence (P29274 whole entry) above
Method: Ligand Binding Assay for Adenosine A2a Receptor (A2A-B)
Ligand binding assay of adenosine A2a receptor was performed using plasma membrane of HEK293 cells containing human A2a adenosine receptor (PerkinElmer, RB-HA2a) and radioligand [^3H]CGS21680 (PerkinElmer, NET1021). Assay was set up in 96-well polypropylene plate in total volume of 200 μL by sequentially adding 20 μL 1:20 diluted membrane, 130 μL assay buffer (50 mM Tris.HCl, pH7.4 10 mM MgCl2, 1 mM EDTA) containing [^3H] CGS21680, 50 μL diluted compound (4×) or vehicle control in assay buffer. Nonspecific binding was determined by […] NECA. Reaction was carried out at room temperature for 2 hours before filtering through 96-well GF/C filter plate pre-soaked in 50 mM Tris.HCl, pH7.4 containing 0.3% polyethylenimine. Plates were then washed 5 times with cold 50 mM Tris.HCl, pH7.4, dried and sealed at the bottom. Microscintillation fluid 30 μL was added to each well and the top sealed. Plates were counted on Packard Topcount for [^3H]. Data was analyzed in Microsoft Excel and GraphPad Prism programs. (Varani, K.; Gessi, S.; Dalpiaz, A.; Borea, P. A. British Journal of Pharmacology, 1996, 117, 1693)

| SMILES | Ki [1] [nM] | Ki [2] [nM] | Ki [3] [nM] |
| --- | --- | --- | --- |
| Nc1nc(-c2ncco2)nc2sc(CCN3CCOCC3)cc12 [Example 3, 6-(2-Morpholin-4-yl-ethyl)-2-oxazol-2-yl-thieno[2,3-d]pyrimidin-4-ylamine] | 238 | 18700 |  |
| C[C@@H]1CCC[C@H](C)N1C[C@@H](O)c1cc2c(N)nc(-c3cccc(C#N)c3)nc2s1 [Example 7, 3-{4-Amino-6-[2-(2,6-dimethyl-piperidin-1-yl)-1-hydroxy-ethyl]-thieno[2,3-d]pyrimidin-2-yl}-benzonitrile] | 195 | 855 |  |
| CC(C)(C)c1ccc(-c2nc(N)c3cc(CCN4CCOCC4)sc3n2)s1 [Example 2, 2-(5-tert-Butyl-thiophen-2-yl)-6-(2-morpholin-4-yl-ethyl)-thieno[2,3-d]pyrimidin-4-ylamine] | > 1490 | > 1310 |  |
| Cc1csc(-c2nc(N)c3cc(CCN4CCOCC4)sc3n2)n1 [Example 4, 2-(4-Methyl-thiazol-2-yl)-6-(2-morpholin-4-yl-ethyl)-thieno[2,3-d]pyrimidin-4-ylamine] | 190 | 2370 |  |

Molecules with a lower Ki [1], results first:

| Ki [1] [nM] | Ki [2] [nM] | Ki [3] [nM] | SMILES |
| --- | --- | --- | --- |
| 77.3 | 3770 | 34.2 | Cc1ccc(-c2nc(N)c3cc(CC4CCCCC4)sc3n2)o1 [Example 1, 6-Cyclohexylmethyl-2-(5-methyl-furan-2-yl)-thieno[2,3-d]pyrimidin-4-ylamine] |
| 40.1 | 594 |  | N#Cc1cccc(-c2nc(N)c3cc(CCN4CCOCC4)sc3n2)c1 [Example 5, 3-[4-Amino-6-(2-morpholin-4-yl-ethyl)-thieno[2,3-d]pyrimidin-2-yl]-benzonitrile] |
| 29.8 | 317 |  | N#Cc1cccc(-c2nc(N)c3cc([C@H](O)CN4CCOCC4)sc3n2)c1 [Example 6, 3-[4-Amino-6-(1-hydroxy-2-morpholin-4-yl-ethyl)-thieno[2,3-d]pyrimidin-2-yl]-benzonitrile] |
